Assay: Human HepG2 cell viability assay in 384 well format
Format: toxicity, cell-based
Parameters: dose 125 nL, time 70.5 hour; concentration not given beside the values
Conditions: HepG2 cells, read-out: Inhibition

Compound | cytotoxicity at 70.5 h
CCC(CN1CCCC1)NC(=O)Cc1c(C)[nH]c2cc(C)cc(C)c12 (centres undefined) | -4.71%
N#Cc1cccc(NC2CC(=O)N(Cc3cccc(F)c3)C2)n1 (centres undefined) | -8.43%
Cn1cccc1CNC(=O)N(CCO)C1CCCc2ccccc21 (centres undefined) | 7.35%
Cc1cc(N(C)C)nc(N2CCCC2c2cccnc2)n1 (centres undefined) | -1.47%
O=C(NCC1CCN(Cc2cc3ccccc3[nH]2)C1)c1ccsc1 (centres undefined) | -9.16%
COCCc1ncc(CN2CCC(Oc3ccccc3C)CC2)cn1 | -0.184%
Cc1cc(CNCCNS(C)(=O)=O)sc1Br | 4.81%
O=C(Cc1cn2ccsc2n1)N1CCCC(n2cncn2)C1 (centres undefined) | 0.86%
COc1cc(CN2CCCC[C@]3(C)NC(=O)CC[C@H]23)ccc1F | -6.42%
CN(CC(=O)NCc1cc2ccccc2o1)S(C)(=O)=O | -0.935%
CC(C)(C)C(O)CN1CCN(C(=O)c2cccc3[nH]ncc23)CC1 (centres undefined) | -3.16%
Cc1ccc(N2CCCN(C(=O)c3n[nH]c4c3CCC4)CC2)nn1 | 1.32%
Cc1nccnc1N1Cc2cnc(CC(C)C)nc2C1 | -6.3%
COc1ccc2c(c1)CCCN2C(=O)CN1CCOC(C)C1 (centres undefined) | 0.691%
COCc1cc(N(C)Cc2ncnn2C)nc(C(C)(C)C)n1 | -10.6%
CC(C)CNC(=O)c1cc2c(s1)CCN2S(C)(=O)=O | -10.9%
O=C(NCCNC(=O)C1CCN(c2ncccn2)CC1)c1ccoc1 | 6.55%
CS(=O)(=O)c1cn[nH]c1C1CCCN(C(=O)Cn2cccn2)C1 (centres undefined) | -9.34%
Cc1ncccc1O[C@H]1CCN(C(=O)Cc2cccs2)CC[C@@H]1O | -7.99%
Cc1csc(NC(=O)CN(C)CC2CCCN2c2cccnn2)n1 (centres undefined) | 3.61%
c1ncn(CC2CN(Cc3ccc4c(c3)OCCO4)CCO2)n1 (centres undefined) | -0.441%
CCc1ccsc1C(=O)N1CCN(CC(O)CC)CC1 (centres undefined) | 6.44%
COc1cccc(CN2C[C@@H]3COC[C@]3(COCc3ccncc3)C2)c1 | 5.79%

Compound | cytotoxicity at 70.5 h
CC(C)OCCCNC(=O)CC1(Cn2cnnn2)CCCCC1 | -8.88%
COCC1CCN(c2cc(C3CN(C)CCO3)nc(C)n2)CC1 (centres undefined) | 0.671%
O=C(NCCCNc1ccccn1)NCC1CCS(=O)(=O)C1 (centres undefined) | -8.26%
Cn1nc(CNC(=O)c2nc3ccccc3s2)c2c1CCOC2 | 8.85%
O=C(CCc1cccnc1)N1CCC2(CCN(CC3CCCC3)C2)C1 (centres undefined) | 23.3%
Cc1ccc(CN2CCn3cc(CN(C)Cc4ccco4)nc3C2)o1 | 0.0869%
CNC(=O)c1cccc(CN2CCC(N(C)Cc3ncc(C)o3)C2)c1 (centres undefined) | 22.2%
O=C1CCCCCN1CCC(=O)N1CCCC(c2ccn[nH]2)C1 (centres undefined) | -9.01%
CNc1nc2c(s1)C(c1ccc(Cl)cc1Cl)CC(=O)N2 (centres undefined) | -5.21%
Cc1cccc(N2CCN(S(=O)(=O)CCN)CC2)c1 | 21.4%
CC(C)(C)c1nc(CN2CCCC2Cn2cccn2)no1 (centres undefined) | 12.2%
CCOc1c(F)cccc1C(=O)N(CC)C(C)c1ccncc1 (centres undefined) | -4.06%
CC(C)CN1CCC2(CC1)CN(C(=O)C(C)C)C2 | -9.29%
CCS(=O)(=O)N1CCC2(CCN(C(=O)c3cccs3)CC2)CC1 | -4.52%
O=C(NCCCN1CCN(c2ncccn2)CC1)NCC1CCCO1 (centres undefined) | -3.85%
COc1ccc(OC)c(-n2cnnc2CN)c1 | -2.21%
CN1CCN(C(=O)N2C[C@H]3CC[C@@H]2CN(Cc2ccccc2)C3)CC1 | -18.1%
CC(C)CC(NC(=O)CSc1ccc(F)c(Cl)c1)C(=O)O (centres undefined) | -18.4%
CC(C)(C)c1cc(=O)[nH]c(-c2ccccc2CN2CCC[C@@H](O)C2)n1 | -2.12%
CCN1C(=O)CC[C@@H]2[C@H]1CCN2S(=O)(=O)Cc1ccc(C)cc1 | -0.603%
Cc1noc(CCNS(=O)(=O)N2CCCC2c2ccc(C)o2)n1 (centres undefined) | 9.73%
CCC(Nc1nccc(C2CCCC2)n1)c1ccccn1 (centres undefined) | -3.14%
Cc1nn(C)c2c(=O)n(CC(=O)Nc3cc(Cl)cc(Cl)c3)nnc12 | -0.624%

Compound | cytotoxicity at 70.5 h
CCC(Nc1nnnn1-c1ccccc1)C(=O)Nc1ccccc1C (centres undefined) | -11%
O=c1c2sccc2nc2n1CCN(Cc1ccsc1)CC2 | 17.3%
CC(O)CN1CCN(C(=O)c2ccc(Cn3cccn3)cc2)CC1 (centres undefined) | -7.08%
Cn1ccnc1CN(CCO)C(=O)c1cc2ccccc2o1 | 9.95%
Cc1nc(-c2ncc(C(=O)NCCNc3ncccc3C)c(O)n2)cs1 | -2.82%
CCn1cnnc1CNC(=O)c1ccc(Cl)cc1I | -7.84%
Cn1nnc2c1CCN(CC1CC1)C2COCC1CC1 (centres undefined) | -12.8%
Cc1cc(NCc2csc(C)n2)no1 | -4.29%
CC(C)[C@H]1CN(Cc2nccn2C)C[C@@H]1NC(=O)CCS(C)(=O)=O | -5.68%
Cc1csc(NC(=O)C2CCN(Cc3cccc4c3OCCO4)CC2)n1 | 8.1%
CN(C)CC(=O)N1CCOCC2(C1)CN(c1ccccc1)C(=O)CO2 (centres undefined) | -45.3%
Cc1noc(C)c1CN1CCC2(CC1)NC(=O)CC2c1cnn(C)c1 (centres undefined) | -8.52%
COc1ccccc1C(C)CC(=O)N1CC[C@H](O)C1 (some centres undefined) | -1.27%
CC(=O)Nc1nc(C(=O)N2CCCC2c2ccc(Br)cc2)cs1 (centres undefined) | 3.74%
CCOC(=O)C1CCN(C(=O)Cn2ccc3cc(Br)ccc32)CC1 | 24.7%
CNc1cc(C)nc(C2CCN(CCO)CC2)n1 | -6.23%
Cc1cnn(CC2CCCN2Cc2ncc(-c3ccc(F)cc3)o2)c1 (centres undefined) | 24%
COCc1ccccc1C(=O)NCCCN1CCCC1C(=O)N(C)C (centres undefined) | 7.28%
O=C(O)[C@@H]1CN(C(=O)c2ccc3[nH]nnc3c2)C[C@H]1c1cccc(F)c1 | -8.9%
C=C(C)COc1ccccc1CNC(CC)c1ccnn1C (centres undefined) | -5.65%
O=c1oc(-c2ccc(F)cc2)nn1CN1CCCCC1 | -18.4%
c1ccc(CN2CCC3(CC2)CCN(Cc2cccnc2)C3)nc1 | -9.45%
COCC1CN(Cc2cc(C)on2)Cc2cn(CC3CC3)nc21 (centres undefined) | -1.87%

Compound | cytotoxicity at 70.5 h
CC(=O)N1CCCC1c1cccc(Cc2ccccc2Cl)n1 (centres undefined) | 0.0226%
CCN1CC2(CC1=O)CN(C(C)=O)CCN(S(=O)(=O)CC)C2 (centres undefined) | -2.5%
O=C1C(n2nnc(-c3ccsc3)n2)CCN1CC(F)(F)F (centres undefined) | -11.5%
NCCNS(=O)(=O)Cc1ccc(Br)cc1 | -0.385%
Cc1noc(C)c1CNC[C@@]1(COc2cccnc2)C[C@@H](O)[C@@H](O)C1 | -8.56%
Cc1cccc(C(C)NCC2CCS(=O)(=O)CC2)c1 (centres undefined) | -3.65%
O=C(CCc1ccncc1)NCCOc1ncc(Cl)cc1Cl | -6.13%
CCc1cc(N2CCC(NC(=O)CCC3CCCO3)CC2)ncn1 (centres undefined) | 25.3%
O=C1NC[C@@]2(C(=O)O)CN(Cc3cccc(Oc4ccccc4)c3)C[C@@H]12 | -4.3%
N#Cc1ccc(N2CCCC3(CCC(=O)N3CC3CC3)CC2)nc1 (centres undefined) | -0.642%
CCc1ncc(C(=O)NCCn2c(C)cc(C)nc2=O)cn1 | -1.56%
Cn1cnc2c1C(C(=O)N1CCCC1)N(S(C)(=O)=O)CC2 (centres undefined) | -7.56%
CC(=O)N[C@@H]1CN(c2nc(CO)cs2)C[C@H]1c1ccc(C)o1 | -12.8%
Cc1cc(C)cc(OCCNC(=O)C(C)Sc2nncn2C)c1 (centres undefined) | -10.3%
Cc1noc(C)c1C(=O)NCC(C)N(C)C (centres undefined) | 4.18%
CC(C)(C)CC(=O)Nc1cnn(-c2ccccc2S(C)(=O)=O)c1 | -5.49%
CCc1c(C)sc2c1c(N)nc(=O)n2CCN1CCCCC1 | 5.23%
Cc1cc(C)n(CC2CCCN2C(=O)c2cn[nH]c2C)n1 (centres undefined) | -1.06%
CCOc1cccc(C(=O)N2C[C@H]3CC[C@@H]2CN(C(=O)C2CCC2)C3)c1 | 23.1%
O=C(CCc1cccs1)N1CCc2[nH]nc(COc3ccccc3)c2C1 | 2.22%
Cc1ccc(C(=O)NCC2Cc3ccccc3O2)cc1S(C)(=O)=O (centres undefined) | -1.47%
COC(=O)C(O)C1CCN(CCc2ccncc2)CC1 (centres undefined) | 9.73%
Cc1ccc(O)c(C(=O)NCCCS(=O)(=O)Cc2ccccc2)c1 | -11.4%

Compound | cytotoxicity at 70.5 h
COCC(=O)N1CCCCC1c1ccncn1 (centres undefined) | 10.7%
COc1ccc(CC(=O)N2CCN(C)c3ncccc3C2)cc1 | 11.6%
NC(=O)COc1ccc(CNCc2ccc(F)c(F)c2)cc1 | 0.155%
O=C(Cc1cn2ccccc2n1)N1CCCC(n2cccn2)C1 (centres undefined) | 23.8%
CCn1c(Cn2cncn2)nnc1C1CCN(Cc2ccc(C)o2)CC1 | -8.85%
N#Cc1ccc(Cl)cc1N1CCC(OC2CCOCC2)CC1 | -3.88%
O=C(c1ccccc1)N1C[C@H]2CCC[C@@]2(COCc2ccncc2)C1 | 0.753%
CN1CC[C@@H]2[C@@H](CO[C@H]2CNC(=O)c2nccn2C)C1 | -4.99%
CC(C(=O)NN1CCOCC1)n1nc(C(F)(F)F)c(Cl)c1C1CC1 (centres undefined) | 6.2%
CCn1ccnc1CN1CCN(c2nc(C)cc(OC)n2)CC1 | -9.98%
CCn1cc(CN2CCCN(C(=O)CCSC)CC2)cn1 | -1.89%
O=C(c1ccc(Cl)cc1)N1CCc2nc(C(=O)N3CCCC3)sc2CC1 | 7.75%
O=C(NCCn1ccnc1)N1CCN(c2nccs2)CC1 | 16.8%
CCCS(=O)(=O)N1C[C@@H](c2nc(C)no2)C[C@H]2OCC[C@H]21 | -0.391%
CNC(=O)[C@@H](c1ccccc1)N1CCC[C@H]1C(=O)NC1CCCCC1 | -2.47%
CC(C)Cc1noc(CN2CCN(C(=O)c3cccc(F)c3)CC2)n1 | -3.6%
Cc1nc(N2C[C@@H](CN3CCCN(C)CC3)[C@@H](CO)C2)c2ccsc2n1 | 11.6%
Cn1cc(CN2CCc3ncnc(N4CCCC4)c3CC2)cn1 | -0.713%
Cn1cnc2c1CCN(c1ccnc(-c3ccccc3)n1)C2 | -18.3%
Cc1cc(C)n(CCCNC(=O)C(C)NC(=O)c2ccccc2Cl)n1 (centres undefined) | -8.83%
O=C(NC1CC1)c1cc(C2CC2)nc2onc(C3CCNCC3)c12 | -4.47%
CSc1cc2c(cc1NC(=O)NCCn1ccnc1)OCCO2 | -3%

From ChEMBL document CHEMBL3507680, “University of Dundee, Gates Library screen for HepG2 cell viability”
